From patent US20100048714A1, “Methods and Compositions Related to Inhibition of Ceramide Synthesis” (University of Utah Research Foundation, priority 2006, published 2010)
Each block holds one compound with its values, some of them ahead of it.

Key:
Sprague-Dawley rats [1] = test: Lipid infusion with hyperinsulinemic euglycemic clamps; assay type: in vivo, rat; settings: for Glucose, During Clamp / FFA, Before Clamp / FFA, Before Infusion / FFA, During Clamp / Glucose, Before Clamp / Glucose, Before Infusion / Insulin, Before Clamp / Insulin, Before Infusion / Insulin, During Clamp: plasma, mean ± standard error, n=4; for Glucose, During Clamp: 30 minute steady state
Text: The more common mechanism by which insulin resistance likely develops in the obese is through the accumulation of fats in tissues not-suited for lipid storage. Indeed, intramyocellular lipid levels inversely correlate with insulin sensitivity, and are one of the best predictors of insulin resistance in humans. To mimic this condition in rats, a 20% lard oil-heparin infusate was delivered into the bloodstream of Sprague-Dawley rats via jugular catheters. […] To assess muscle insulin sensitivity during the infusion, hyperinsulinemic-euglycemic clamps were performed on conscious, unrestrained rats during the terminal 90 minutes of the protocol. Lard oil infusion decreased insulin-stimulated glucose disposal to 47% of glycerol treated control subjects (FIG. 3C). […] Differences in the glucose infusion rats could not be accounted for by the slight differences in the glucose concentration that was achieved during the clamp nor to differences in steady-state insulin concentrations (Table 3).
Male Sprague-Dawley rats (˜250 grams) were randomly divided into nine different groups. Glycerol, 20% lard oil, or 20% soy oil emulsions were prepared as previously described (Stein 1997) and infused at a constant rate of 5 mL/Kg/hour. To activate lipoprotein lipase, heparin (6 units/hour) was added to the triglyceride emulsions. Lipids were infused in animals treated with control injections (normal saline), myriocin (100 μg/Kg IP) or cycloserine (50 mg/Kg IP). Drugs were given 12 hours prior to lipid infusion and equivalent doses were given intravenously at the time of infusion. […] Following lipid infusion animals were deeply anesthetized with sodium pentobarbital and soleus muscles were rapidly dissected out and rapidly frozen in liquid nitrogen.
Clamps were performed in conscious unrestrained animals using swivels and tethers (Instech, Plymouth Meeting, Pa.) to allow uninterrupted movement of the animal without disruption of infusion lines. Hyperinsulinemia was initiated by intravenous infusion of insulin (10 mU/kg/min at a flow rate of 4 μL/min).

soleus muscles = test: Isolated soleus muscle strips incubated with free fatty acids; settings: cycloserine 1 mM or myriocin 10 μM
DES 1 = target: T1, DES 1 (Homo sapiens, UniProt O15121); settings: Zheng et al. 2006; Szkudelski et al. 2006; cited from earlier work
T1 sequence (O15121 1-323): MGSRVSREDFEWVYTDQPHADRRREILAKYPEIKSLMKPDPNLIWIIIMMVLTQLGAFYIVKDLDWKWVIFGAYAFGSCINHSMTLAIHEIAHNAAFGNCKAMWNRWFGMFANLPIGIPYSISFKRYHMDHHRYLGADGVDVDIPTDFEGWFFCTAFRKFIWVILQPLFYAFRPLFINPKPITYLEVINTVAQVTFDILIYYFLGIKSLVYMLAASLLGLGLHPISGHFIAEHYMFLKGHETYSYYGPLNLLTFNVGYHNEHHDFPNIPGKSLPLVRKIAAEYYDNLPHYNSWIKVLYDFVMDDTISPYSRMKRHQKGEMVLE

Sprague-Dawley rats [2] = test: Glucose tolerance test (glucose 1 g/kg IP) in dexamethasone-treated rats; assay type: in vivo, rat; settings: dexamethasone vs vehicle
Experimental: (§1) (A) Sprague-Dawley rats were treated with myriocin (300 μg/Kg, IP, solid bars) or saline (open bars) for two weeks prior to giving administering dexamethasone (40 μg/Kg, IP) or vehicle (5% ethanol) every 12 hours for 36 hours. Animals were euthanized by CO2 inhalation, livers were removed, and ceramide levels were assessed as described in SOM-Methods. Shown are mean ceramide levels+/−S.E.M, n=6 per group. The asterisk denotes that the sample was statistically different from vehicle-treated controls, p<0.05, student's t-test. (B) Livers were obtained as in A, above, and protein and mRNA were extracted as described in SOM-Methods. Levels of transcripts (solid bars) encoding serine palimitoyl transferase isoforms 1 and 2 (SPT1 and SPT2), dihydroceramide synthases (DCS) TL1, UOG, and TRH3, glucosylceramide synthase (GCS), and acid ceramidase (AC) transcripts were obtained by reverse-transcriptase polymerase chain reaction, normalized to β-actin. SPT2 protein levels (white bars) were detected by immunoblotting with an antibody from Cayman Chemicals (Ann Arbor, Mich.) and quantified on a Kodak Image Station 2000R (Rochester, N.Y.). Data represent the fold-change in transcript or protein in dexamethasone-treated animals relative to vehicle controls. […] (C and D) Rats were challenged with glucose (1 g/kg) given intraperitoneally (IP) following treatment with dexamethasone (squares), ethanol carrier (triangles), myriocin (open shapes), or saline (solid shapes) as in A, above. Tail vein blood (3 μl) was sampled for glucose (C)(using the Glucometer Elite from Bayer Corp., Tarrytown, N.Y.) or insulin (D) (using an Elisa kit from Linco Diagnostics, Springfield, Mo.). […] (E-G) Hyperinsulinemic euglycemic clamps were performed on animals (n=4 per group) treated as in A, above, as described in SOM-Methods. Data from animals receiving myriocin are depicted in solid bars. (E) The glucose infusion rate required to maintain normal glycemia during insulin infusion ([…]) was calculated as the average infusion rate during the 60 minute steady state. (F) Hepatic glucose output was estimated by the disappearance of [^14C] glucose from a bolus dose given during the steady state minus the glucose infusion rate. (G) Disappearance of a bolus dose of [^3H] 2-deoxyglucose from the bloodstream was used to estimate the rate of whole body glucose uptake.
Tail vein blood (3 μl) was sampled for glucose determination (Hitachi 911 clinical chemistry analyzer, Roche, Indianapolis, Ind. or Glucometer Elite, Bayer Corp., Tarrytown, N.Y.)-30 minutes, immediately before and 15, 30, 45, 60, 90, and 120 min after glucose administration. Additionally, serum was collected and analyzed for insulin by Elisa (Linco Diagnostics, Springfield, Mo.).

Sprague dawley rats [3] = test: Hyperinsulinemic euglycemic clamps of dexamethasone treated rats; assay type: in vivo, rat; settings: plasma, 60 minute steady state; Dexamethasone-treated (Saline or Myriocin); mean ± standard error, n=4
Sprague dawley rats [4] = test: as above; assay type: in vivo, rat; settings: plasma, Dexamethasone-treated (Saline or Myriocin), mean ± standard error, n=4
Experimental: as §1
To definitively evaluate effects on insulin sensitivity, as well as to distinguish whether the treatment protocols differentially affected glucose uptake in skeletal muscle or hepatic output by the liver, hyperinsulinemic-euglycemic clamps with D-[U-^14C] glucose and 2-deoxy-D-[2,6-^3H] glucose tracers were performed.
Clamps were performed in conscious unrestrained animals using swivels and tethers (Instech, Plymouth Meeting, Pa.) to allow uninterrupted movement of the animal without disruption of infusion lines. Hyperinsulinemia was initiated by intravenous infusion of insulin (10 mU/kg/min at a flow rate of 4 μL/min). Blood was sampled from arterial lines in 7 minute intervals and analyzed with a Beckman Glucose analyzer II (Beckman Coulter, Fullerton, Calif.). Euglycemia was maintained by variable infusion of 20% dextrose. Steady state was achieved approximately 90 minutes after initiating hyperinsulinemia and maintained for 30 minutes. Glucose infusion rates were calculated as the average glucose infusion rate during the 30 minute steady state. Additional blood samples were taken before initiating hyperinsulinemia and at the end of the clamp for analysis of insulin and free fatty acids.

[5] = system: genes which control ceramide synthesis or degradation; test: RT-PCR of genes which control ceramide synthesis or degradation after TNFα; assay type: cell-based
Experimental: Using RT-PCR, mRNA levels of serine palmitoyltransferase subunits (LCB1 and LCB2), acid ceramidase (AC), glucosylceramide synthase (GCS), ceramide kinase (CerK), and ceramide synthase isoforms 1-6 (Cers/Lass 1-6) were evaluated.
The possibility that TNFαα-stimulation of lipolysis can account for the increase in ceramide by stimulating the formation of intracellular palmitoyl-CoA, which could serve as a precursor for ceramide biosynthesis, was considered. […] Instead, it appears that TNFα regulates the expression or activity of enzymes that control intracellular ceramide levels. Using RT-PCR, changes in mRNA levels of genes which control ceramide synthesis or degradation were evaluated. […] The analysis was extended to consider several ceramide synthase (CerS/LASS) isoforms, which selectively catalyze the incorporation of distinct fatty acids into the sphinganine backbone. TNFα-induced an impressive 8 and 5-fold increase in CerS1 and CerS4, respectively. These enzymes preferentially catalyze the production of ceramide species containing the stearate fatty acid.

[6] = Intralipid infusion, with or without myriocin or cycloserine
[7] = lard oil infusion, with or without myriocin or cycloserine

Compound: N[C@@H]1CON=C1O [L-cycloserine]
insulin-stimulated glucose disposal / insulin resistance (Sprague-Dawley rats [1]; [6]): Neither myriocin nor cycloserine prevented
muscle DAG levels (Sprague-Dawley rats [1]; [6]): Neither myriocin nor cycloserine prevented
ceramide in skeletal muscle (Sprague-Dawley rats [1]; [7]): blocked ceramide synthesis
diacylglycerol (DAG) in muscle (Sprague-Dawley rats [1]; [7]): Neither myriocin nor cycloserine reduced DAG
glucose utilization in clamp (Sprague-Dawley rats [1]; lard-infused animals): restored glucose utilization
Glucose, During Clamp (Sprague-Dawley rats [1]; Lipid: Glycerol): 111.0 ± 3.0 mg/dL
Glucose, During Clamp (Sprague-Dawley rats [1]; Lipid: Lard oil (PBS or drug)): 106.6 ± 2.6 mg/dL
Glucose, During Clamp (Sprague-Dawley rats [1]; Lipid: Soy oil (PBS or drug)): 106.2 ± 0.44 mg/dL
FFA, Before Clamp (Sprague-Dawley rats [1]; Lipid: Glycerol): 0.489 ± 0.10 mM
FFA, Before Infusion (Sprague-Dawley rats [1]; Lipid: Glycerol): 0.562 ± 0.10 mM
FFA, During Clamp (Sprague-Dawley rats [1]; Lipid: Glycerol): 0.501 ± 0.11 mM
Glucose, Before Clamp (Sprague-Dawley rats [1]; Lipid: Glycerol): 113.0 ± 3.2 mg/dL
Glucose, Before Infusion (Sprague-Dawley rats [1]; Lipid: Glycerol): 104.0 ± 13.1 mg/dL
Insulin, Before Clamp (Sprague-Dawley rats [1]; Lipid: Glycerol): 9.19 ± 0.20 ng/mL
Insulin, Before Infusion (Sprague-Dawley rats [1]; Lipid: Glycerol): 0.659 ± 0.11 ng/mL
Insulin, During Clamp (Sprague-Dawley rats [1]; Lipid: Glycerol): 12.08 ± 0.03 ng/mL
FFA, Before Clamp (Sprague-Dawley rats [1]; Lipid: Lard oil (PBS or drug)): 1.53 ± 0.19 mM
FFA, Before Infusion (Sprague-Dawley rats [1]; Lipid: Lard oil (PBS or drug)): 0.672 ± 0.14 mM
FFA, During Clamp (Sprague-Dawley rats [1]; Lipid: Lard oil (PBS or drug)): 2.12 ± 0.89 mM
Glucose, Before Clamp (Sprague-Dawley rats [1]; Lipid: Lard oil (PBS or drug)): 101.6 ± 7.1 mg/dL
Glucose, Before Infusion (Sprague-Dawley rats [1]; Lipid: Lard oil (PBS or drug)): 100.6 ± 6.4 mg/dL
Insulin, Before Clamp (Sprague-Dawley rats [1]; Lipid: Lard oil (PBS or drug)): 2.18 ± 0.76 ng/mL
Insulin, Before Infusion (Sprague-Dawley rats [1]; Lipid: Lard oil (PBS or drug)): 0.793 ± 0.15 ng/mL
Insulin, During Clamp (Sprague-Dawley rats [1]; Lipid: Lard oil (PBS or drug)): 16.27 ± 2.69 ng/mL
FFA, Before Clamp (Sprague-Dawley rats [1]; Lipid: Soy oil (PBS or drug)): 1.51 ± 0.23 mM
FFA, Before Infusion (Sprague-Dawley rats [1]; Lipid: Soy oil (PBS or drug)): 1.02 ± 0.32 mM
FFA, During Clamp (Sprague-Dawley rats [1]; Lipid: Soy oil (PBS or drug)): 2.10 ± 0.77 mM
Glucose, Before Clamp (Sprague-Dawley rats [1]; Lipid: Soy oil (PBS or drug)): 124.0 ± 10.8 mg/dL
Glucose, Before Infusion (Sprague-Dawley rats [1]; Lipid: Soy oil (PBS or drug)): 102.3 ± 7.1 mg/dL
Insulin, Before Clamp (Sprague-Dawley rats [1]; Lipid: Soy oil (PBS or drug)): 3.13 ± 1.0 ng/mL
Insulin, Before Infusion (Sprague-Dawley rats [1]; Lipid: Soy oil (PBS or drug)): 1.12 ± 0.17 ng/mL
Insulin, During Clamp (Sprague-Dawley rats [1]; Lipid: Soy oil (PBS or drug)): 14.38 ± 0.67 ng/mL
linoleate effects on 2-DOG uptake (soleus muscles; 1 mM linoleate): did not alter linoleate effects
linoleate effects on DAG accumulation (soleus muscles; 1 mM linoleate): did not alter linoleate effects
DAG in palmitate-treated muscles (soleus muscles; 1 mM palmitate): without affecting DAG
palmitate effect on insulin-stimulated 2-deoxyglucose uptake (soleus muscles; 1 mM palmitate): completely negated the antagonistic effects of palmitate
palmitate-induced ceramide accumulation (soleus muscles; 1 mM palmitate): prevented palmitate-induced ceramide accumulation

Compound: CC1=C(/C=C/C(C)=C/C=C/C(C)=C/C(=O)Nc2ccc(O)cc2)C(C)(C)CCC1 [fenretinide]
inhibition of DES 1 (DES 1): inhibit DES 1

Compound: C[C@@H]1C[C@H]2[C@@H]3CCC4=CC(=O)C=C[C@]4(C)[C@@]3(F)[C@@H](O)C[C@]2(C)[C@@]1(O)C(=O)CO [Dexamethasone]
increase in fasting blood glucose (Sprague-Dawley rats [2]): 13%
increase in fasting insulin concentrations (Sprague-Dawley rats [2]): 2.8 fold
Glucose, During Clamp (Sprague dawley rats [3]): 131.1 ± 5.1 mg/dL
Insulin, During Clamp (Sprague dawley rats [4]; steady state): 6.7 ± 1.3 ng/mL
FFA (Sprague dawley rats [4]; Before Clamp by layout): 211 ± 38 µM
Glucose, Before Clamp (Sprague dawley rats [4]): 139.0 ± 3.1 mg/dL
Insulin, Before Clamp (Sprague dawley rats [4]): 4.36 ± 2.34 ng/mL

Compound: Oc1ccc(C=Cc2cc(O)cc(O)c2)cc1 [resveratrol]
inhibition of DES 1 (DES 1): inhibit DES 1

expression of serine palmitoyltransferase subunits LCB1 and LCB2 (mRNA) [5]: increased expression
Compound: TNFα
expression of glucosylceramide synthase (mRNA) [5]: markedly reduced expression
increase in CerS1 (mRNA) [5]: 8 fold
increase in CerS4 (mRNA) [5]: 5 fold
